# Laboratory results reported in patent US7704995B2 (Exelixis, Inc., priority 2003, dated 2010).
# pIC50: −log10 of the molar value.
# Molecular target: T1, Chk1 (Homo sapiens, UniProt O14757)
# T1 construct: purchased Upstate Biotechnology
# T1 sequence (O14757 1-476): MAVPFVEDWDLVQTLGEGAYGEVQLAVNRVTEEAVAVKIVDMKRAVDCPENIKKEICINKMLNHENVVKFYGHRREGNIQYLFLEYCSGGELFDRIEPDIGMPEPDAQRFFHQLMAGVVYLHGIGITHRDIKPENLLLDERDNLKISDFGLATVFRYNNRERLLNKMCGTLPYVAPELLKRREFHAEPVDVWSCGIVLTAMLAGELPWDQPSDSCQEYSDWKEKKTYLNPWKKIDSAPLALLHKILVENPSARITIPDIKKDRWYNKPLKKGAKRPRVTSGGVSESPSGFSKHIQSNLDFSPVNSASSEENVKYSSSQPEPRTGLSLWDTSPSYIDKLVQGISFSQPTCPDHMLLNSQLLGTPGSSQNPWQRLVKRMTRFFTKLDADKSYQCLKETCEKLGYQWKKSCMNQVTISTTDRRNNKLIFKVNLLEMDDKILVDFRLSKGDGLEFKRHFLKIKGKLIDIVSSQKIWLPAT
# Test: Chk1 kinase assay: incorporation of γ-33P ATP into immobilized myelin basic protein
# Assay type: biochemical
# Conditions: Table 11, Chk1 only; class symbols A-D; read-out: Chk1 IC50
# Procedure, shortened: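 Immobilized-MBP radiometric kinase assay, room temperature for 1 h; ATP 10 μM (Chk1, 10 nM enzyme) or 30 μM (Chk2, 20 nM enzyme) with 33P tracer. Values are IC50s, with Ki derived from them.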
row,SMILES,pIC50
1,"Nc1ncc(-c2cccc(C(=O)N[C@H]3CCc4ccccc43)c2)nc1C(=O)N[C@H]1CCCCNC1 [Example 973, 3-amino-N-[(3S)-azepan-3-yl]-6-(3{[(1S)-2,3-dihydro-1H-inden-1-ylamino]carbonyl}phenyl)pyrazine-2-carboxamide]",> 7.30
2,"Nc1ncc(-c2cccc(CNC(=O)c3ccc(Cl)cc3)c2)nc1-c1nc([C@H]2CCCNC2)n[nH]1 [Example 941, N-{[3-(5-amino-6-{3-[(3S)-piperidin-3-yl]-1H-1,2,4-triazol-5-yl}pyrazin-2-yl)phenyl]methyl}-4-chlorobenzamide]",> 7.30
3,"Nc1ncc(-c2cccc(CNC(=O)c3cc(F)cc(F)c3)c2)nc1-c1nc([C@H]2CCCNC2)n[nH]1 [Example 943, N-{[3-(5-amino-6-{3-[(3S)-piperidin-3-yl]-1H-1,2,4-triazol-5-yl}pyrazin-2-yl)phenyl]methyl}-3,5-difluorobenzamide]",> 7.30
4,"Nc1ncc(-c2cccc(C(=O)NCc3c(F)ccc(F)c3F)c2)nc1C(=O)N[C@H]1CCCNC1 [Example 1004, 3-amino-N-[(3S)-piperidin-3-yl]-6-[3-({[(2,3,6-trifluorophenyl)methyl]amino}carbonyl)phenyl]pyrazine-2-carboxamide]",> 7.30
5,"Nc1ncc(-c2cccc(CNC(=O)c3ccc(Br)cc3Cl)c2)nc1-c1nc([C@H]2CCCNC2)n[nH]1 [Example 945, N-{[3-(5-amino-6-{3-[(3S)-piperidin-3-yl]-1H-1,2,4-triazol-5-yl}pyrazin-2-yl)phenyl]methyl}-4-bromo-2-chlorobenzamide]",> 7.30
6,"Cc1cc(Cl)cc(Cl)c1CNC(=O)c1cccc(-c2cnc(N)c(C(=O)N[C@H]3CCCNC3)n2)c1 [Example 951, 3-amino-6-[3-({[(2,4-dichloro-6-methylphenyl)methyl]amino}carbonyl)phenyl]-N-[(3S)-piperidin-3-yl]pyrazine-2-carboxamide]",> 7.30

# Now from value to molecule:
row,pIC50,SMILES
1,6.00 to 7.30,"Nc1ncc(-c2cccc(S(=O)(=O)N[C@@H]3CCc4ccccc43)c2)nc1C(=O)N[C@H]1CCNC1 [Example 812, 3-amino-6-(3-{[(1R)-2,3-dihydro-1H-inden-1-ylamino]sulfonyl}phenyl)-N-[(3S)-pyrrolidin-3-yl]pyrazine-2-carboxamide]"
2,> 7.30,"Cc1cc(C(=O)Nc2cccc(-c3cnc(N)c(C(=O)N[C@H]4CCCNC4)n3)c2)n(C)n1 [Example 902, 3-amino-6-(3-{[(1,3-dimethyl-1H-pyrazol-5-yl)carbonyl]amino}phenyl)-N-[(3S)-piperidin-3-yl]pyrazine-2-carboxamide]"
3,> 7.30,"Nc1ncc(-c2cccc(CNCc3ccc(F)cc3F)c2)nc1C(=O)N[C@H]1CCCNC1 [Example 999, 3-amino-6-[3-({[(2,4-difluorophenyl)methyl]amino}methyl)phenyl]-N-[(3S)-piperidin-3-yl]pyrazine-2-carboxamide]"
4,> 7.30,"Nc1ncc(-c2cccc(NC(=O)Cc3ccc(Cl)cc3Cl)c2)nc1C(=O)N[C@H]1CCCNC1 [Example 890, 3-amino-6-(3-{[(2,4-dichlorophenyl)acetyl]amino}phenyl)-N-[(3S)-piperidin-3-yl]pyrazine-2-carboxamide]"

# Same assay, conditions: Table 11; Chk1 only; read-out: Chk1 IC50
row,SMILES,pIC50
1,"Nc1ncc(-c2cccc(C(=O)NCc3ccccc3)c2)nc1C(=O)NCCCNS(=O)(=O)c1ccccn1 [Example 654, 3-amino-6-(3-{[(phenylmethyl)amino]carbonyl}phenyl)-N-{3-[(pyridin-2-ylsulfonyl)amino]propyl}pyrazine-2-carboxamide]",5.00 to 6.00
2,"C/C(=N\N(C)C)c1nc(-c2cccc(C(=O)NCc3ccccc3)c2)cnc1N [Example 629, 3-{5-amino-6-[(1E)-N,N-dimethylethanehydrazonoyl]pyrazin-2-yl}-N-(phenylmethyl)benzamide]",6.00 to 7.30
3,"CNC(=O)c1nc(-c2cccc(CN[C@@H]3CCN(Cc4ccccc4)C3)c2)cnc1N [Example 438, 3-amino-N-methyl-6-[3-({[(3R)-1-(phenylmethyl)pyrrolidin-3-yl]amino}methyl)phenyl]pyrazine-2-carboxamide]",6.00 to 7.30
4,"Nc1ncc(-c2cccc(C(=O)NCc3ccccc3)c2)nc1C(=O)NCCNC(=O)c1cnc2ccccc2n1 [Example 663, N-[2-({[3-amino-6-(3-{[(phenylmethyl)amino]carbonyl}phenyl)pyrazin-2-yl]carbonyl}amino)ethyl]quinoxaline-2-carboxamide]",≤ 5.00
5,"CCN1CC[C@H](NC(=O)c2nc(-c3cccc(C(=O)NCc4ccccc4)c3)cnc2N)C1 [Example 700, 3-amino-N-[(3S)-1-ethylpyrrolidin-3-yl]-6-(3-{[(phenylmethyl)amino]carbonyl}phenyl)pyrazine-2-carboxamide]",6.00 to 7.30

# Results, then the molecule that gave them:
row,pIC50,SMILES
1,5.00 to 6.00,"Nc1ncc(-c2cccc(C(=O)N[C@H]3CCc4ccccc43)c2)nc1-c1n[nH]c(CCOCc2ccccc2)n1 [Example 771, 3-[5-amino-6-(5-{2-[(phenylmethyl)oxy]ethyl}-1H-1,2,4-triazol-3-yl)pyrazin-2-yl]-N-[(1S)-2,3-dihydro-1H-inden-1-yl]benzamide]"
2,> 7.30,"Nc1ncc(-c2cccc(CO)c2)nc1-c1nc(-c2ccncc2)n[nH]1 [Example 606, {3-[5-amino-6-(3-pyridin-4-yl-1H-1,2,4-triazol-5-yl)pyrazin-2-yl]phenyl}methanol]"
3,6.00 to 7.30,"Nc1ncc(-c2cccc(CO)c2)nc1-c1nc(C2CCNC2)n[nH]1 (centres unmarked) [Example 643, {3-[5-amino-6-(3-pyrrolidin-3-yl-1H-1,2,4-triazol-5-yl)pyrazin-2-yl]phenyl}methanol]"

# Same assay, conditions: read-out: Chk1 IC50
row,SMILES,pIC50
1,"CNC(=O)c1nc(-c2cccc(C(=O)NCc3ccc(C)c(F)c3F)c2)cnc1N [Example 298, 3-amino-6-[3-({[(2,3-difluoro-4-methylphenyl)methyl]amino}carbonyl)phenyl]-N-methylpyrazine-2-carboxamide]",6.00 to 7.30
2,"CNC(=O)c1nc(-c2cccc(C(=O)NC3Cc4ccccc4C3)c2)cnc1N [Example 104, 3-amino-6-{3-[(2,3-dihydro-1H-inden-2-ylamino)carbonyl]phenyl}-N-methylpyrazine-2-carboxamide]",6.00 to 7.30
3,"CNC(=O)c1nc(-c2cccc(CNC(=O)c3cc(F)ccc3F)c2)cnc1N [Example 310, 3-amino-6-[3-({[(2,5-difluorophenyl)carbonyl]amino}methyl)phenyl]-N-methylpyrazine-2-carboxamide]",6.00 to 7.30
4,"CNC(=O)c1nc(-c2cccc(C(=O)NCc3cc(F)ccc3F)c2)cnc1N [Example 337, 3-amino-6-[3-({[(2,5-difluorophenyl)methyl]amino}carbonyl)phenyl]-N-methylpyrazine-2-carboxamide]",6.00 to 7.30

# Further lines, results first:
row,pIC50,SMILES
1,5.00 to 6.00,"CNC(=O)c1nc(-c2ccc(S(C)(=O)=O)cc2)cnc1N [Example 87, 3-amino-N-methyl-6-[4-(methylsulfonyl)phenyl]pyrazine-2-carboxamide]"
2,6.00 to 7.30,"CNC(=O)c1nc(-c2cccc(OCCN3CCC(Cc4ccccc4)CC3)c2)cnc1N [Example 187, 3-amino-N-methyl-6-[3-({2-[4-(phenylmethyl)piperidin-1-yl]ethyl}oxy)phenyl]pyrazine-2-carboxamide]"
3,5.00 to 6.00,"CNC(=O)c1nc(-c2cccc(OCCN3CCOCC3)c2)cnc1N [Example 185, 3-amino-N-methyl-6-{3-[(2-morpholin-4-ylethyl)oxy]phenyl}pyrazine-2-carboxamide]"
4,6.00 to 7.30,"CNC(=O)c1nc(-c2cccc(CNCc3ccccc3)c2)cnc1N [Example 315, 3-amino-N-methyl-6-(3-{[(phenylmethyl)amino]methyl}phenyl)pyrazine-2-carboxamide]"
